This is an account of results in ChEMBL document CHEMBL4028852, “Design of a Chemical Probe for the Bromodomain and Plant Homeodomain Finger-Containing (BRPF) Family of Proteins” (J Med Chem, 2017).

Data set [1] deals with T1, Bromodomain-containing protein 9 (Homo sapiens, UniProt Q9H8M2).
T1 sequence (Q9H8M2 whole entry): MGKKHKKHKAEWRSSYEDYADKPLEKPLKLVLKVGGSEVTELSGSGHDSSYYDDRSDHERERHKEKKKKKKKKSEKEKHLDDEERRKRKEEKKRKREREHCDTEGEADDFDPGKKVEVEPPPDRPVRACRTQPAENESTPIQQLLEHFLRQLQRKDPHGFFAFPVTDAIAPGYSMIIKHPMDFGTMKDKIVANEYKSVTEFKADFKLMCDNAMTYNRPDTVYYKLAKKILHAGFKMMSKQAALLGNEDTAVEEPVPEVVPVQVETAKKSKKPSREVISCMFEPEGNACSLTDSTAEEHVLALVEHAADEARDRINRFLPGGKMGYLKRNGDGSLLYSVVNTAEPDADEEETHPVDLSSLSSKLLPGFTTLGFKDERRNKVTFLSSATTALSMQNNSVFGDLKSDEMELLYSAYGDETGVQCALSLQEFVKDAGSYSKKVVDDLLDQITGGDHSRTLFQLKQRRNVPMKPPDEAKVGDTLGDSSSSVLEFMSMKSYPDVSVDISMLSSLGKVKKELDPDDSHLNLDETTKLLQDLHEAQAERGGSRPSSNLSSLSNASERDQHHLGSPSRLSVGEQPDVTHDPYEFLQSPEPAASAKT
Kind of data set: Inhibition of His-tagged BRD9 (unknown origin) after 30 mins by alphaScreen assay.

Data set [2] concerns the target Bromodomain-containing protein 4 (Homo sapiens, UniProt O60885). Kind of data set: Inhibition of human BRD4 bromodomain 1 (unknown origin) using [H-YSGRGKacGGKacGLGKacGGAKacRHRK(Biotin)-OH peptide as substrate after 30 mins by alphaScreen assay.
A further data set has as its system Liver. Nature of the data set: Metabolic stability in human liver microsomes by UPLC-MS/MS analysis. The data set is classed as ADME, microsome.
The nature of data set [3]: Inhibition of cell proliferation of human RERF-LC-Sq1 cells after 72 hrs by MTS assay. The data set is classed as functional. To be noted: RERF-LC-Sq1, 72 h.
Data set [4] can be described thus: Oral bioavailability in CD1 mouse at 3 mg/kg by UPLC-MS/MS analysis. In kind it is ADME, organism-based. To be noted: in vivo.
In another data set the target is Nav1.5 (Homo sapiens, UniProt Q14524). Nature of the data set: Inhibition of Nav1.5 (unknown origin) at 30 uM.
A further data set deals with Cav1.2 (Homo sapiens, UniProt Q13936). Nature of the data set: Inhibition of Cav1.2 (unknown origin) at 30 uM.
A further data set addresses T2, Kir2.1 (Homo sapiens, UniProt P63252).
T2 sequence (P63252 whole entry): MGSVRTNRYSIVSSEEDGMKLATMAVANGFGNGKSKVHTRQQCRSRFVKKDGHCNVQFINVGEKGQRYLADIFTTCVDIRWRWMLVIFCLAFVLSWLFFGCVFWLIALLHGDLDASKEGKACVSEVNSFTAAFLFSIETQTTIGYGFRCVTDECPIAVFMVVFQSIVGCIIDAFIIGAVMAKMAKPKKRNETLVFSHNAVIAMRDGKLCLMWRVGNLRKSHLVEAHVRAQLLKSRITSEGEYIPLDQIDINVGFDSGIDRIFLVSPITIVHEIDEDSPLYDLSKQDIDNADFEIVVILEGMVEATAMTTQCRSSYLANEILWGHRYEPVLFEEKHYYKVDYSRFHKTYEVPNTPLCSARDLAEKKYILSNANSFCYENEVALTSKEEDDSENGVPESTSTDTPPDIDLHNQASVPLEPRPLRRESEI
Nature of the data set: Inhibition of Kir2.1 (unknown origin) at 30 uM.

Sequence of Nav1.5 (Q14524 whole entry): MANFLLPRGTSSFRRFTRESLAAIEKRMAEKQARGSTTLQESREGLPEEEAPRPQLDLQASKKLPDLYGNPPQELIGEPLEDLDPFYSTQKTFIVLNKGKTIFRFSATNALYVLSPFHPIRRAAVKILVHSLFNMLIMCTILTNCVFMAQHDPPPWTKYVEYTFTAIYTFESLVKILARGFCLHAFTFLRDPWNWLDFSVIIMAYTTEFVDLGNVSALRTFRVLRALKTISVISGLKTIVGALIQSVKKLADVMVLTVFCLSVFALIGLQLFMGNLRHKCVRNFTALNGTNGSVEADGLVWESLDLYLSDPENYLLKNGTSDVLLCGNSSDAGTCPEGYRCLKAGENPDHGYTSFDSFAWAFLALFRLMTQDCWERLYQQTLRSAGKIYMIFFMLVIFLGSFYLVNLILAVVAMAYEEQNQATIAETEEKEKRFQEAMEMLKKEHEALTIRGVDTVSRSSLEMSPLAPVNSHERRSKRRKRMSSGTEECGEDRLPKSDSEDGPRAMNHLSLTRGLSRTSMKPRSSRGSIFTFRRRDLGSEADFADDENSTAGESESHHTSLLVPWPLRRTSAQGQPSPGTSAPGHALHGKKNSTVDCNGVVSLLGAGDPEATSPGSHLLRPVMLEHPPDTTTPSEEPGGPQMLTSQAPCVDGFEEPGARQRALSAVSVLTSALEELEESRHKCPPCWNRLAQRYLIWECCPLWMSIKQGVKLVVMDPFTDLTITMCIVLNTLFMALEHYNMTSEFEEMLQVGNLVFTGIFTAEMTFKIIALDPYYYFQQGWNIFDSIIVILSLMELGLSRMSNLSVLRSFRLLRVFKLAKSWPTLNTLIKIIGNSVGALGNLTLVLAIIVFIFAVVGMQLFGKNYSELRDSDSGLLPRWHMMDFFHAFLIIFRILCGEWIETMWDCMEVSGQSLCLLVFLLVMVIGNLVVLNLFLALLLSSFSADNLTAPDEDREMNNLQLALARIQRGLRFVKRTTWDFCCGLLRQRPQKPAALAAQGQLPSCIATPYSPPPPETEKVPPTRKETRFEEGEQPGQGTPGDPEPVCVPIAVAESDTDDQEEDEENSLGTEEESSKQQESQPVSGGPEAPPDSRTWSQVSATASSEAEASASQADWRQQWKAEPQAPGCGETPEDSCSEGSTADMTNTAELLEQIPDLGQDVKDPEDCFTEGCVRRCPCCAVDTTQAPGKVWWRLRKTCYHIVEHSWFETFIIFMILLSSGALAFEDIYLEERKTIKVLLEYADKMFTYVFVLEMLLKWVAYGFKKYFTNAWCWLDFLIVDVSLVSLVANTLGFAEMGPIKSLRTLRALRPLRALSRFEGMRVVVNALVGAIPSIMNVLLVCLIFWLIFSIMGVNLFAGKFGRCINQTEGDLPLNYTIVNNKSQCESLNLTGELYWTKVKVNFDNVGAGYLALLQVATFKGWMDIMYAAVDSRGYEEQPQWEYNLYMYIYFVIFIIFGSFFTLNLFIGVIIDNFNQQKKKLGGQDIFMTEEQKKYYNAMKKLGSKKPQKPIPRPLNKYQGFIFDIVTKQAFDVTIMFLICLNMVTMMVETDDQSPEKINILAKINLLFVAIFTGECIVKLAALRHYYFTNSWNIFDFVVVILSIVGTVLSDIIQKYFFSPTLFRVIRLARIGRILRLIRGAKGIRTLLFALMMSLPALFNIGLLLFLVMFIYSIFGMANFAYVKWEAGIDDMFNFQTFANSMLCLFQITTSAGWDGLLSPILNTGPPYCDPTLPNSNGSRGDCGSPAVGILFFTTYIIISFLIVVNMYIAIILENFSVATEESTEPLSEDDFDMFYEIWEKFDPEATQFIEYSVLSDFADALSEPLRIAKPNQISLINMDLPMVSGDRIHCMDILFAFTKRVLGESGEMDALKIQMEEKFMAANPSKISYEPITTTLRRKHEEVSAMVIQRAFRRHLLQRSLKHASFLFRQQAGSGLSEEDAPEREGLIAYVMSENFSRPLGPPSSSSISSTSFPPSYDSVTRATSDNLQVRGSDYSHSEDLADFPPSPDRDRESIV
Sequence of Cav1.2 (Q13936 whole entry): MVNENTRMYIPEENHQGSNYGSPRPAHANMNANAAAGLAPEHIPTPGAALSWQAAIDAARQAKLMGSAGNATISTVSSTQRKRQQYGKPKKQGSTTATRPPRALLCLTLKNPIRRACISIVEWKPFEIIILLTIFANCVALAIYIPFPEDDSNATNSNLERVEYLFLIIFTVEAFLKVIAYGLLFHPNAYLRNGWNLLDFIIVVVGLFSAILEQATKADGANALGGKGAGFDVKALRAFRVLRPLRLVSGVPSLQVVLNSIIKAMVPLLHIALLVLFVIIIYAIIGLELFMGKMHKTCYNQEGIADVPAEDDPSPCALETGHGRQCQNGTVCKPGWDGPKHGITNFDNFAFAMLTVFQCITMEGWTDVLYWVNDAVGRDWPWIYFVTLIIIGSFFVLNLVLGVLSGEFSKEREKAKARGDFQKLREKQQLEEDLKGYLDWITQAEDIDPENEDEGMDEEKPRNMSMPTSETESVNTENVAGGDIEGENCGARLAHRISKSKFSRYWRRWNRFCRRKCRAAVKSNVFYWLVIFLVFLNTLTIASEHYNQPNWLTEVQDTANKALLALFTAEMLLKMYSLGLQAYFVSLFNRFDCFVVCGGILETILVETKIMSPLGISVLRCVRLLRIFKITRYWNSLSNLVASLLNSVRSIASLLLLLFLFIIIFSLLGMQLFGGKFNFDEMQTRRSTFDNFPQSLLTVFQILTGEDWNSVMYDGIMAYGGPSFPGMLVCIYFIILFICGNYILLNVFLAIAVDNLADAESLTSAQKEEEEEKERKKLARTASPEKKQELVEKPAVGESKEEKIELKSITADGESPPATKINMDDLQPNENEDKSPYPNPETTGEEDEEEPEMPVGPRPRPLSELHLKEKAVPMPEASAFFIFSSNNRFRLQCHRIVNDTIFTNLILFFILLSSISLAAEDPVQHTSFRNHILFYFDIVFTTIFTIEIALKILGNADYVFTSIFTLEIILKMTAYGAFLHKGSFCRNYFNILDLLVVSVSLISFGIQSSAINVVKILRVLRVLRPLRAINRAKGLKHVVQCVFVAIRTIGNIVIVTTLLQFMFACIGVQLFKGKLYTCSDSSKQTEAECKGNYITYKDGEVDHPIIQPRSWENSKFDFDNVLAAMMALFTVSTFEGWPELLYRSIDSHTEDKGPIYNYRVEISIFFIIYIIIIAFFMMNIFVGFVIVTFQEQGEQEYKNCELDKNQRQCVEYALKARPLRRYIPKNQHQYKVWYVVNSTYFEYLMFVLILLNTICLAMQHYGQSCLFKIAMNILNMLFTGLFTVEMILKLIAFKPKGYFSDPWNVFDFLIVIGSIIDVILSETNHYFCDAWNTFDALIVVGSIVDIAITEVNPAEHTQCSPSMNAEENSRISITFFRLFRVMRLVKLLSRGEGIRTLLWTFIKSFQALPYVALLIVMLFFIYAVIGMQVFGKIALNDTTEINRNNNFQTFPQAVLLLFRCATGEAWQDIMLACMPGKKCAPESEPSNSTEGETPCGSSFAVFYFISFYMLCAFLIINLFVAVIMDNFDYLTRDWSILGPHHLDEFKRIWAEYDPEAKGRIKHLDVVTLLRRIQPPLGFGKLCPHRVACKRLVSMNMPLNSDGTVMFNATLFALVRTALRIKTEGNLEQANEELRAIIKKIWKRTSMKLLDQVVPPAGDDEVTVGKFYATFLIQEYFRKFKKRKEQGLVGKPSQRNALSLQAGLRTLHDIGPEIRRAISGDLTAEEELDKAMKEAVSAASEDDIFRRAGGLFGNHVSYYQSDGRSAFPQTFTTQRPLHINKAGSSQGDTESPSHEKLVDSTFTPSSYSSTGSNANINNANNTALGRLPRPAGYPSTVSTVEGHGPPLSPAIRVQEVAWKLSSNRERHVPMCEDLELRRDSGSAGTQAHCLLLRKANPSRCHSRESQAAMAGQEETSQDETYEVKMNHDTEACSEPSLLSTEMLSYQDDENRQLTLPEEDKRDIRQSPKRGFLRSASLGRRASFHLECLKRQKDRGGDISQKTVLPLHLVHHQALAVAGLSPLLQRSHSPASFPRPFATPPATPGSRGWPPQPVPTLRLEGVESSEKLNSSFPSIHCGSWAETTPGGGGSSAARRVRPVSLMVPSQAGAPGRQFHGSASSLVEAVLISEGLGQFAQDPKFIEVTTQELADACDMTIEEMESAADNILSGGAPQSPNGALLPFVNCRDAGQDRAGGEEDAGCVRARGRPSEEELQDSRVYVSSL

In the case of `COc1cc(C#N)ccc1S(=O)(=O)Nc1ccc2c(c1)cc(C)c(=O)n2C`, the values for the concentration for half-maximal inhibition (IC50) in data set [1] and in data set [2] were 4.4 µM and above 10 µM, respectively. Besides, the Stability entry in the data set with Liver is given as “Stable”. Further, halving of growth in data set [3] (GI50) required 16.6 µM. Also, the bioavailability in data set [4] was found to be 29%. Moreover, the inhibition at 30 µM on Nav1.5, against Cav1.2 and on Kir2.1 was below 40% throughout.
